In patent US20240109880A1 (Insilico Medicine IP Limited, priority 2021, published 2024) one finds IC50 data, which are given here for 30 molecules.

Each structure is given as a SMILES string.

The target in the test is KAT6A (Homo sapiens (Human), UniProt Q92794). In words: KAT6A Biochemical Assay (radiometric 384-well, [3H]-Ac-CoA, biotinylated H4(1-30) peptide). The note with it: 5 nM KAT6A enzyme solution (2×), 60 min reaction at room temperature. The procedure:
Inhibition of KAT6A enzymatic activity by test compounds was determined using a radiometric 384-well format assay. A 10-point serial dilution of the test compounds were conducted in DMSO and then a volume of 200 nL was transferred into 384-well assay plate by Echo (Labcyte). 10 μL of 2× enzyme solution (5 nM KAT6A (Active Motif) in assay buffer (50 mM Tris-HCl pH 8.0, 50 mM KCl, 0.1 mM EDTA, 5% glycerol, 1 mM DTT)) was dispensed into assay plate except for low control wells, in which 10 μL of assay buffer was transferred. The plate was incubated at room temperature for 15 min before addition of 10 μL of 2×[^3H]-acetyl coenzyme A (Ac-CoA) and substrate peptide mix solution (500 nM (KAT6A) [^3H]-Ac-CoA (PerkinElmer) and 800 nM (KAT6A) biotinylated H4(1-30) peptide (GL Biochem) in assay buffer) to each well to start reaction. The plate was incubated at room temperature for 60 min (KAT6A), and then the reaction was stopped by adding 10 μL of stop solution (cold Ac-CoA (Cayman) in 1× assay buffer). 25 μL of reaction in each well was transferred to Flashplate (PerkinElmer) and incubated for another 1 hour at room temperature. The plate was read on Microbeta and the inhibition percentage of each compound treated well was calculated based on the equation in h %=(Max−sample)/(Max−Min)*100 where Max is signal from high control wells with enzyme, and Min is signal from low control wells with assay buffer only. The in h % data were further fit in XL-Fit to obtain IC50 values using a 4-parameter logistic (4PL) sigmoidal curve model.

Sequence of KAT6A (Q92794 whole entry): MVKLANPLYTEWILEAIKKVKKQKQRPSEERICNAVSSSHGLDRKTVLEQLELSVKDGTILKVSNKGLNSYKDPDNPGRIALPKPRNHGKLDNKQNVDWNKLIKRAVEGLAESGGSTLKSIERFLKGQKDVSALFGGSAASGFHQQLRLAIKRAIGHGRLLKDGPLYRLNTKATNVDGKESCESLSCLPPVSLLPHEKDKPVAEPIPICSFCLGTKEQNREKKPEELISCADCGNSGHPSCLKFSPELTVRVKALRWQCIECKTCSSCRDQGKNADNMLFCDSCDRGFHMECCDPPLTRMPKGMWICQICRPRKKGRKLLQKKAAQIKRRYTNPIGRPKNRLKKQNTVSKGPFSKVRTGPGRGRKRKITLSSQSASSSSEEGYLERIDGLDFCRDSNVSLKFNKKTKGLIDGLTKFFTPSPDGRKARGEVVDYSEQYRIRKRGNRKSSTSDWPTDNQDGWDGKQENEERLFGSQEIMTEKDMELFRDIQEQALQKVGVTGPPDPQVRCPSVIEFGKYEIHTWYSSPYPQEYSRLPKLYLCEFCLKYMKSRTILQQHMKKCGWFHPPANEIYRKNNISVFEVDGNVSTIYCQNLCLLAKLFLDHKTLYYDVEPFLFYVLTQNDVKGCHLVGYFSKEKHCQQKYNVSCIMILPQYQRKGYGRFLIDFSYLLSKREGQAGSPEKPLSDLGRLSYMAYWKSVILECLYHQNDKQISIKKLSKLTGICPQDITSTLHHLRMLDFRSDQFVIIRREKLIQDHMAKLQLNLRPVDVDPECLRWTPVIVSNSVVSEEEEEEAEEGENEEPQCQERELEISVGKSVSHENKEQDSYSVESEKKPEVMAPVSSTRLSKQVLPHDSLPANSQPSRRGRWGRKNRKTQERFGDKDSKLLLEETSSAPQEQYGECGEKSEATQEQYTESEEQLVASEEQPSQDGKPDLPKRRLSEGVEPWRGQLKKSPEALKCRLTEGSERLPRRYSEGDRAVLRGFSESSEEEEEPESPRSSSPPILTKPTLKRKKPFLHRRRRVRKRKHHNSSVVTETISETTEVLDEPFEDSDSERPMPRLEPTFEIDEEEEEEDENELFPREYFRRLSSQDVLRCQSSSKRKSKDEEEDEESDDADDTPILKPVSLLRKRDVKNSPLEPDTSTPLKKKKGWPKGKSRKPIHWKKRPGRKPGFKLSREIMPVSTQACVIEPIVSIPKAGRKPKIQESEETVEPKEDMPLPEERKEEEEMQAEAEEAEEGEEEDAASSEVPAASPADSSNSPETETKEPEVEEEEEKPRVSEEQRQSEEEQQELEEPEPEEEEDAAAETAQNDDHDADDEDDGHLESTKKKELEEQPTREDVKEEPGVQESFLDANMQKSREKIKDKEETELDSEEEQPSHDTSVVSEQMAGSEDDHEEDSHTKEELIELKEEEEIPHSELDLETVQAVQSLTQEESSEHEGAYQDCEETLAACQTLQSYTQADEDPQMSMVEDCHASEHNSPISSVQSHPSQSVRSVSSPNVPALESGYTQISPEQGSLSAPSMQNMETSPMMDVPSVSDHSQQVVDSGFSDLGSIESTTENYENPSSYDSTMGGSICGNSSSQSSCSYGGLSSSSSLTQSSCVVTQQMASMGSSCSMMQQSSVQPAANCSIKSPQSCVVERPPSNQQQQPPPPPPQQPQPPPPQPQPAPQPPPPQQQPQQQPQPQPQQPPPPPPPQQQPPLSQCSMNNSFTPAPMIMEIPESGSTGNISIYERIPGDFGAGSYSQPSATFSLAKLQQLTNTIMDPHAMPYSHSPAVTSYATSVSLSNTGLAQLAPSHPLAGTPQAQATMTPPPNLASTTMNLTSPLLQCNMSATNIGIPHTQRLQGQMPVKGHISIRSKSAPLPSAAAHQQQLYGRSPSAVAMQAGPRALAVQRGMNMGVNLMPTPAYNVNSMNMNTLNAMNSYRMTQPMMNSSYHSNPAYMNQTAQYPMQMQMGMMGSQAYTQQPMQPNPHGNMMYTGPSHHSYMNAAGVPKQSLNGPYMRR

Regarding `COc1cccc(OC)c1S(=O)(=O)Nc1noc2cc(Cn3cccn3)cnc12` [Compound 1, N-(6-((1H-pyrazol-1-yl)methyl)isoxazolo[4,5-b]pyridin-3-yl)-2,6-dimethoxybenzenesulfonamide], the IC50 (as a rule, the concentration that gives 50% inhibition) lay in the range of 10 to 1000 nM.
For `COc1ccnc(OC)c1S(=O)(=O)Nc1noc2cc(Cn3cccn3)cc(OC)c12` [Compound 2, N-(6-((1H-pyrazol-1-yl)methyl)-4-methoxybenzo[d]isoxazol-3-yl)-2,4-dimethoxypyridine-3-sulfonamide] the value was 10 to 100 nM; for `COc1cccc(OC)c1S(=O)(=O)Nc1noc2cc(Cn3cccn3)cc(OC(F)F)c12` [Compound 3, N-(6-((1H-pyrazol-1-yl)methyl)-4-(difluoromethoxy)benzo[d]isoxazol-3-yl)-2,6-dimethoxybenzenesulfonamide], less than 10 nM; for `COc1cccc(OC)c1S(=O)(=O)Nc1noc2cc(Cn3cccn3)cc(OCC(F)(F)F)c12` [Compound 4, N-(6-((1H-pyrazol-1-yl)methyl)-4-(2,2,2-trifluoroethoxy)benzo[d]isoxazol-3-yl)-2,6-dimethoxybenzenesulfonamide], 10 to 100 nM.
For `COc1ccnc(OC)c1S(=O)(=O)Nc1noc2cc(Cn3cccn3)cc(OC(F)F)c12` [Compound 5, N-(6-((1H-pyrazol-1-yl)methyl)-4-(difluoromethoxy)benzo[d]isoxazol-3-yl)-2,4-dimethoxypyridine-3-sulfonamide] the value was 10 to 100 nM; for `COc1ccccc1S(=O)(=O)Nc1noc2cc(Cn3cccn3)cc(OC(F)F)c12` [Compound 6, N-(6-((1H-pyrazol-1-yl)methyl)-4-(difluoromethoxy)benzo[d]isoxazol-3-yl)-2-methoxybenzenesulfonamide], 10 to 100 nM; for `O=S(=O)(Nc1noc2cc(Cn3cccn3)cc(OC(F)F)c12)c1ccccc1OC(F)(F)F` [Compound 7, N-(6-((1H-pyrazol-1-yl)methyl)-4-(difluoromethoxy)benzo[d]isoxazol-3-yl)-2-(trifluoromethoxy)benzenesulfonamide], 10 to 1000 nM.
For `COc1cccc(OC)c1S(=O)(=O)Nc1noc2cc(Cn3cccn3)cc(OC(F)(F)F)c12` [Compound 8, N-(6-((1H-pyrazol-1-yl)methyl)-4-(trifluoromethoxy)benzo[d]isoxazol-3-yl)-2,6-dimethoxybenzenesulfonamide] the value was 10 to 100 nM.
Regarding `COc1cc(C)nc(OC)c1S(=O)(=O)Nc1noc2cc(Cn3cccn3)cc(OC)c12` [Compound 11, N-(6-((1H-pyrazol-1-yl)methyl)-4-methoxybenzo[d]isoxazol-3-yl)-2,4-dimethoxy-6-methylpyridine-3-sulfonamide], the IC50 was less than 10 nM.
In the case of `COc1ccccc1S(=O)(=O)Nc1noc2cc(Cn3cccn3)cc(OC(F)(F)F)c12` [Compound 12, N-(6-((1H-pyrazol-1-yl)methyl)-4-(trifluoromethoxy)benzo [d]isoxazol-3-yl)-2-methoxybenzenesulfonamide], the 50% inhibitory concentration (IC50) was in the range of 10 to 100 nM.
With `COc1cccc(OC)c1S(=O)(=O)Nc1noc2nc(Cn3cccn3)cc(OC)c12` [Compound 13, N-(6-((1H-pyrazol-1-yl)methyl)-4-methoxyisoxazolo[5,4-b]pyridin-3-yl)-2,6-dimethoxybenzenesulfonamide], the half-maximal inhibitory concentration (IC50) is greater than 1000 nM.
Then `COc1ccccc1S(=O)(=O)Nc1noc2cc(Cn3cccn3)c3c(c12)OCCC3` [Compound 15, N-(5-((1H-pyrazol-1-yl)methyl)-3,4-dihydro-2H-chromeno [8,7-d]isoxazol-9-yl)-2-methoxybenzenesulfonamide], with less than 10 nM.
Then `COc1ncccc1S(=O)(=O)Nc1noc2cc(Cn3cccn3)c3c(c12)OCCC3` [Compound 16, N-(5-((1H-pyrazol-1-yl)methyl)-3,4-dihydro-2H-chromeno [8,7-d]isoxazol-9-yl)-2-methoxypyridine-3-sulfonamide], with 10 to 100 nM; and `COc1ccnc(OC)c1S(=O)(=O)Nc1noc2cc(Cn3cccn3)c3c(c12)OCCC3` [Compound 17, N-(5-((1H-pyrazol-1-yl)methyl)-3,4-dihydro-2H-chromeno [8,7-d]isoxazol-9-yl)-2,4-dimethoxypyridine-3-sulfonamide], with less than 10 nM; and `COc1cc(C)nc(OC)c1S(=O)(=O)Nc1noc2cc(Cn3cccn3)c3c(c12)OCCC3` [Compound 18, N-(5-((1H-pyrazol-1-yl)methyl)-3,4-dihydro-2H-chromeno [8,7-d]isoxazol-9-yl)-2,4-dimethoxy-6-methylpyridine-3-sulfonamide], with less than 10 nM.
Then `COc1ccnc(OC)c1S(=O)(=O)Nc1noc2cc(Cn3cccn3)c3c(c12)OCCCC3` [Compound 20, N-(6-((1H-pyrazol-1-yl)methyl)-2,3,4,5-tetrahydrooxepino [3′,2′:5,6]benzo[1,2-d]isoxazol-10-yl)-2,4-dimethoxypyridine-3-sulfonamide], with less than 10 nM; and `COc1cc(C)nc(OC)c1S(=O)(=O)Nc1noc2cc(Cn3cccn3)c3c(c12)OCCCC3` [Compound 21, N-(6-((1H-pyrazol-1-yl)methyl)-2,3,4,5-tetrahydrooxepino [3′,2′:5,6]benzo[1,2-d]isoxazol-10-yl)-2,4-dimethoxy-6-methylpyridine-3-sulfonamide], with less than 10 nM; and `COc1ccccc1S(=O)(=O)Nc1noc2cc(Oc3ccccn3)c3c(c12)OCCC3` [Compound 25, 2-methoxy-N-(5-(pyridin-2-yloxy)-3,4-dihydro-2H-chromeno [8,7-d]isoxazol-9-yl)benzenesulfonamide], with less than 10 nM.
For the molecule `COc1ccccc1S(=O)(=O)Nc1noc2cc(Oc3ccccn3)c3c(c12)OCC3` [Compound 26, 2-methoxy-N-(4-(pyridin-2-yloxy)-2,3-dihydrobenzofuro[7,6-d]isoxazol-8-yl)benzenesulfonamide], the IC50 fell in the range of 10 to 100 nM.
On to `COc1cccc(OC)c1S(=O)(=O)Nc1noc2cc(Oc3cccnn3)c3c(c12)OCCC3` [Compound 30, 2,6-dimethoxy-N-(5-(pyridazin-3-yloxy)-3,4-dihydro-2H-chromeno[8,7-d]isoxazol-9-yl)benzenesulfonamide], for which the IC50 lay in the range of 10 to 100 nM.
For `COc1cccc(OC)c1S(=O)(=O)Nc1noc2cc(Cn3cccn3)cc(OCF)c12` [Compound 31, N-(6-((1H-pyrazol-1-yl)methyl)-4-(fluoromethoxy)benzo [d]isoxazol-3-yl)-2,6-dimethoxybenzenesulfonamide] the value was less than 10 nM.
The molecule `COc1ccnc(OC)c1S(=O)(=O)Nc1noc2cc(Cn3cccn3)c3c(c12)OCC3` [Compound 32, N-(4-((1H-pyrazol-1-yl)methyl)-2,3-dihydrobenzofuro[7,6-d]isoxazol-8-yl)-2,4-dimethoxypyridine-3-sulfonamide] gave an IC50 of 10 to 100 nM.
For `COc1cccc(OC)c1S(=O)(=O)Nc1noc2cc(Oc3ncccn3)c3c(c12)OCCC3` [Compound 33, 2,6-dimethoxy-N-(5-(pyrimidin-2-yloxy)-3,4-dihydro-2H-chromeno[8,7-d]isoxazol-9-yl)benzenesulfonamide] the value was 10 to 100 nM; for `COc1cccc(OC)c1S(=O)(=O)Nc1noc2cc(Oc3ncco3)c3c(c12)OCCC3` [Compound 34, 2,6-dimethoxy-N-(5-(oxazol-2-yloxy)-3,4-dihydro-2H-chromeno[8,7-d]isoxazol-9-yl)benzenesulfonamide], less than 10 nM.
For `COc1cccc(OC)c1S(=O)(=O)Nc1noc2cc(Oc3ncccc3C)c3c(c12)OCCC3` [Compound 36, 2,6-dimethoxy-N-(5-((3-methylpyridin-2-yl)oxy)-3,4-dihydro-2H-chromeno[8,7-d]isoxazol-9-yl)benzenesulfonamide] the value was less than 10 nM.
Then `COc1cc(C)nc(OC)c1S(=O)(=O)Nc1noc2cc(Cn3cccn3)cc(OCF)c12` [Compound 37], with less than 10 nM; and `COc1cc(C)ncc1S(=O)(=O)Nc1noc2cc(Cn3cccn3)cc(OC)c12` [Compound 38, N-(6-((1H-pyrazol-1-yl)methyl)-4-methoxybenzo[d]isoxazol-3-yl)-4-methoxy-6-methylpyridine-3-sulfonamide], with 10 to 1000 nM; and `COc1cc(C2CC2)nc(OC)c1S(=O)(=O)Nc1noc2cc(Cn3cccn3)cc(OC)c12` [Compound 39, N-(6-((1H-pyrazol-1-yl)methyl)-4-methoxybenzo[d]isoxazol-3-yl)-6-cyclopropyl-2,4-dimethoxypyridine-3-sulfonamide], with 10 to 100 nM.
As to `COc1cc(C(F)F)nc(OC)c1S(=O)(=O)Nc1noc2cc(Cn3cccn3)cc(OC)c12` [Compound 40, N-(6-((1H-pyrazol-1-yl)methyl)-4-methoxybenzo[d]isoxazol-3-yl)-6-(difluoromethyl)-2,4-dimethoxypyridine-3-sulfonamide], the half-maximal inhibitory concentration (IC50) is 10 to 1000 nM.
Then `COc1cc(C(F)(F)F)nc(OC)c1S(=O)(=O)Nc1noc2cc(Cn3cccn3)cc(OC)c12` [Compound 41, N-(6-((1H-pyrazol-1-yl)methyl)-4-methoxybenzo[d]isoxazol-3-yl)-2,4-dimethoxy-6-(trifluoromethyl)pyridine-3-sulfonamide], with 10 to 100 nM.
